According to patent publication US4206235A, “Novel 2,5-dihalophenyl-β-substituted sulfone fungicides” (priority 1976, dated 1980):
In brackets after ≈: the same amount, converted by molar mass.

Columns and labels:
[1] = test system: Fusarium oxysporum sp. f.lycopersici; experiment: Fungitoxicity in culture media (agar), growth inhibition; type: cell-based; conditions: 50% inhibition of growth, read-out: ED50 (the source's name)
Procedure: (§1) Acetone solutions of the compound were mixed with an aliquot of distilled water and the fine suspension obtained was mixed with cooled but melted agar medium and poured into Petri dishes.
(§2) The tested fungi were grown on the solidified media. Growth of the fungus was measured and percent inhibition was calculated by comparing with the appropriate acetone-water controls. Media were usually Martin's or potato-dextrose agar media.
(§3) ED50 = effective dose, sufficient for the 50% inhibition of growth of the fungus, expressed in p.p.m.

[2] = test system: Pythium aphanidermatum; experiment: as above; type: cell-based; conditions: 50% inhibition of growth, read-out: ED50 (the source's name)
Procedure: as §1, §2, §3

[3] = test system: Rhizoctonia bataticola; experiment: as above; type: cell-based; conditions: Macrophomina phaseolina, 50% inhibition of growth, read-out: ED50 (the source's name)
Procedure: as §1, §2, §3

[4] = test system: Rhizoctonia solani; experiment: as above; type: cell-based; conditions: 50% inhibition of growth, read-out: ED50 (the source's name)
Procedure: as §1, §2, §3

[5] = test system: Rhizopus stolonifer; experiment: as above; type: cell-based; conditions: 50% inhibition of growth, read-out: ED50 (the source's name)
Procedure: as §1, §2, §3

[6] = test system: Sclerotinia rolfsil; experiment: as above; type: cell-based; conditions: 50% inhibition of growth, read-out: ED50 (the source's name)
Procedure: as §1, §2, §3

[7] = test system: Venturia inaequalis; experiment: Control of apple scab in greenhouse test, apple seedlings; type: in vivo; conditions: Barrat & Horsfall Scale, 1 = 0%, 12 = 100% leaf scabbed, 15 days after inoculation
[8] = test system: Venturia inaequalis; experiment: Comparative performance of 2 compounds and 2 commercial fungicides, spray treated plants in greenhouse; type: in vivo
[9] = test system: Penicillium funiculosum; experiment: Halo test on plasticized PVC sheeting; type: cell-based; design: key to growth under the test sample (GUS): +: no reduction in growth; ±: slight reduction in growth; .-+.: moderate reduction in growth; -: complete reduction in growth
[10] = test system: Trichoderma viride; experiment: Halo test on plasticized PVC sheeting; type: cell-based; design: key to growth under the test sample (GUS): +: no reduction in growth; ±: slight reduction in growth; .-+.: moderate reduction in growth; -: complete reduction in growth
[11] = test system: Aspergillus flavus; experiment: Halo test on plasticized PVC sheeting; type: cell-based; design: key to growth under the test sample (GUS): +: no reduction in growth; ±: slight reduction in growth; .-+.: moderate reduction in growth; -: complete reduction in growth
[12] = test system: Aspergillus niger; experiment: Halo test on plasticized PVC sheeting; type: cell-based; design: key to growth under the test sample (GUS): +: no reduction in growth; ±: slight reduction in growth; .-+.: moderate reduction in growth; -: complete reduction in growth
[13] = test system: Cladosporium cladosporoides; experiment: Halo test on plasticized PVC sheeting; type: cell-based; design: key to growth under the test sample (GUS): +: no reduction in growth; ±: slight reduction in growth; .-+.: moderate reduction in growth; -: complete reduction in growth
[14] = test system: Paecilomyces varioti; experiment: Halo test on plasticized PVC sheeting; type: cell-based; design: key to growth under the test sample (GUS): +: no reduction in growth; ±: slight reduction in growth; .-+.: moderate reduction in growth; -: complete reduction in growth
[15] = test system: Alternaria tenuis; experiment: Halo test on plasticized PVC sheeting; type: cell-based; design: key to growth under the test sample (GUS): +: no reduction in growth; ±: slight reduction in growth; .-+.: moderate reduction in growth; -: complete reduction in growth; conditions: for Zone of growth inhibition (halo): brackets = growth partially suppressed
[16] = 0.5% in PVC sheeting, brackets = growth partially suppressed

`O=S(=O)(CC(Cl)Cl)c1cc(Cl)ccc1Cl` [Example 1, 2,5-dichlorophenyl-β,β'-dichloroethyl sulfone] gave an IC50 [1] of 50 µg/mL (≈ 162 µM), an IC50 [2] of 10 µg/mL (≈ 32.5 µM) and an IC50 [3] of 5 µg/mL (≈ 16.2 µM). It also gave an IC50 [4] of 5 µg/mL (≈ 16.2 µM), an IC50 [5] of 50 µg/mL (≈ 162 µM) and an IC50 [6] of 10 µg/mL (≈ 32.5 µM). It also gave a Mean disease severity ([7]; 50 p.p.m.) of 3.5, a Mean disease severity ([7]; 100 p.p.m.) of 3.0 and a Mean disease severity ([7]; 500 p.p.m.) of 1.0. For the same molecule, the Disease control ([8]; Test No.1, inoculum 2.5 ×10^5 /ml, 50 p.p.m.) was 63.6%, the Disease control ([8]; Test No.1, inoculum 2.5 ×10^5 /ml, 100 p.p.m.) was 97.4% and the Disease control ([8]; Test No.1, inoculum 2.5 ×10^5 /ml, 500 p.p.m.) was 100%. It also gave a Disease control ([8]; Test No.2, inoculum 5.0 ×10^5 /ml, 50 p.p.m.) of 98.2%, a Disease control ([8]; Test No.2, inoculum 5.0 ×10^5 /ml, 100 p.p.m.) of 99.5% and a Disease control ([8]; Test No.2, inoculum 5.0 ×10^5 /ml, 500 p.p.m.) of 100%. For the same molecule, the “growth under the test sample (GUS)” value ([9]; 0.5% in PVC sheeting) was “+”, the “Zone of growth inhibition (halo)” value ([9]; 1% in PVC sheeting) was 2.5 millimetres and the “growth under the test sample (GUS)” value ([9]; 1% in PVC sheeting) was “.-+”. The “Zone of growth inhibition (halo)” value ([10]; 0.5% in PVC sheeting) was 0 millimetres, the “growth under the test sample (GUS)” value ([10]; 0.5% in PVC sheeting) was “+” and the “Zone of growth inhibition (halo)” value ([10]; 1% in PVC sheeting) was 0 millimetres. The “growth under the test sample (GUS)” value ([10]; 1% in PVC sheeting) was “+”, the “Zone of growth inhibition (halo)” value ([11]; 0.5% in PVC sheeting) was 0 millimetres and the “growth under the test sample (GUS)” value ([11]; 0.5% in PVC sheeting) was “.-+”. For the same molecule, the “Zone of growth inhibition (halo)” value ([11]; 1% in PVC sheeting) was 0 millimetres, the “growth under the test sample (GUS)” value ([11]; 1% in PVC sheeting) was “.-+” and the “growth under the test sample (GUS)” value ([12]; 0.5% in PVC sheeting) was “.-+”. The “Zone of growth inhibition (halo)” value ([12]; 1% in PVC sheeting) was 6 millimetres, the “growth under the test sample (GUS)” value ([12]; 1% in PVC sheeting) was “-” and the “growth under the test sample (GUS)” value ([13]; 0.5% in PVC sheeting) was “-”. For the same molecule, the “Zone of growth inhibition (halo)” value [13, 16] was 5 millimetres, the “Zone of growth inhibition (halo)” value ([13]; 1% in PVC sheeting) was 12 millimetres and the “growth under the test sample (GUS)” value ([13]; 1% in PVC sheeting) was “-”. The “Zone of growth inhibition (halo)” value ([14]; 0.5% in PVC sheeting) was 0 millimetres, the “growth under the test sample (GUS)” value ([14]; 0.5% in PVC sheeting) was “+” and the “Zone of growth inhibition (halo)” value ([14]; 1% in PVC sheeting) was 15 millimetres. The “growth under the test sample (GUS)” value ([14]; 1% in PVC sheeting) was “-”, the “growth under the test sample (GUS)” value ([15]; 0.5% in PVC sheeting) was “-” and the “Zone of growth inhibition (halo)” value ([15]; 0.5% in PVC sheeting) was 11 millimetres. The “growth under the test sample (GUS)” value ([15]; 1% in PVC sheeting) was “-” and the “Zone of growth inhibition (halo)” value ([15]; 1% in PVC sheeting) was 17 millimetres.
In the case of `O=S(=O)(CC(Cl)c1ccccc1)c1cc(Cl)ccc1Cl` (stereo not drawn) [Example 5, 2,5-dichlorophenyl-β-chloro-β-phenylethyl sulfone], the IC50 [1] is reported as > 50 µg/mL, the IC50 [3] is reported as 50 µg/mL (≈ 143 µM) and the IC50 [4] is reported as 20 µg/mL (≈ 57.2 µM). For the same molecule, the Mean disease severity ([7]; 50 p.p.m.) was 6.0, the Mean disease severity ([7]; 100 p.p.m.) was 2.3 and the Mean disease severity ([7]; 500 p.p.m.) was 3.5.
For `O=S(=O)(CC(Cl)(Cl)Cl)c1cc(Cl)ccc1Cl` [Example 2, 2,5-dichlorophenyl,β,β',β"-trichloroethyl sulfone], the IC50 [1] was 50 µg/mL (≈ 146 µM), the IC50 [2] was 5 µg/mL (≈ 14.6 µM) and the IC50 [3] was 10 µg/mL (≈ 29.2 µM). For the same molecule, the IC50 [4] was 10 µg/mL (≈ 29.2 µM), the IC50 [6] was 10 µg/mL (≈ 29.2 µM) and the Mean disease severity ([7]; 50 p.p.m.) was 5.0. The Mean disease severity ([7]; 100 p.p.m.) was 2.9, the Mean disease severity ([7]; 500 p.p.m.) was 1.3 and the “growth under the test sample (GUS)” value ([9]; 0.5% in PVC sheeting) was “+”. The “Zone of growth inhibition (halo)” value [9, 16] was 0 millimetres, the “Zone of growth inhibition (halo)” value ([9]; 1% in PVC sheeting) was 0 millimetres and the “growth under the test sample (GUS)” value ([9]; 1% in PVC sheeting) was “+”. For the same molecule, the “Zone of growth inhibition (halo)” value ([10]; 0.5% in PVC sheeting) was 0 millimetres, the “growth under the test sample (GUS)” value ([10]; 0.5% in PVC sheeting) was “+” and the “Zone of growth inhibition (halo)” value ([10]; 1% in PVC sheeting) was 0 millimetres. For the same molecule, the “growth under the test sample (GUS)” value ([10]; 1% in PVC sheeting) was “+”, the “Zone of growth inhibition (halo)” value ([11]; 0.5% in PVC sheeting) was 0 millimetres and the “growth under the test sample (GUS)” value ([11]; 0.5% in PVC sheeting) was “+”. For the same molecule, the “Zone of growth inhibition (halo)” value ([11]; 1% in PVC sheeting) was 0 millimetres, the “growth under the test sample (GUS)” value ([11]; 1% in PVC sheeting) was “+” and the “growth under the test sample (GUS)” value ([12]; 0.5% in PVC sheeting) was “+”. For the same molecule, the “Zone of growth inhibition (halo)” value [12, 16] was 0 millimetres, the “Zone of growth inhibition (halo)” value ([12]; 1% in PVC sheeting) was 0 millimetres and the “growth under the test sample (GUS)” value ([12]; 1% in PVC sheeting) was “+”. The “growth under the test sample (GUS)” value ([13]; 0.5% in PVC sheeting) was “.-+”, the “Zone of growth inhibition (halo)” value ([13]; 1% in PVC sheeting) was 8 millimetres and the “growth under the test sample (GUS)” value ([13]; 1% in PVC sheeting) was “-”. The “Zone of growth inhibition (halo)” value ([14]; 0.5% in PVC sheeting) was 0 millimetres, the “growth under the test sample (GUS)” value ([14]; 0.5% in PVC sheeting) was “+” and the “Zone of growth inhibition (halo)” value ([14]; 1% in PVC sheeting) was 0 millimetres. For the same molecule, the “growth under the test sample (GUS)” value ([14]; 1% in PVC sheeting) was “+”, the “growth under the test sample (GUS)” value ([15]; 0.5% in PVC sheeting) was “.-+” and the “growth under the test sample (GUS)” value ([15]; 1% in PVC sheeting) was “-”.
